Assay results taken from ChEMBL document CHEMBL4800729 (2021).

Legend:
[1] = target: 5-hydroxytryptamine receptor 3A (Homo sapiens) (UniProt P46098); details: Compound concentration 10.0 uM
[2] = organism: Rattus norvegicus; details: Compound concentration 10.0 uM
[3] = target: T1, Alpha-2C adrenergic receptor (Homo sapiens) (UniProt P18825); details: Compound concentration 10.0 uM
T1 sequence (whole entry): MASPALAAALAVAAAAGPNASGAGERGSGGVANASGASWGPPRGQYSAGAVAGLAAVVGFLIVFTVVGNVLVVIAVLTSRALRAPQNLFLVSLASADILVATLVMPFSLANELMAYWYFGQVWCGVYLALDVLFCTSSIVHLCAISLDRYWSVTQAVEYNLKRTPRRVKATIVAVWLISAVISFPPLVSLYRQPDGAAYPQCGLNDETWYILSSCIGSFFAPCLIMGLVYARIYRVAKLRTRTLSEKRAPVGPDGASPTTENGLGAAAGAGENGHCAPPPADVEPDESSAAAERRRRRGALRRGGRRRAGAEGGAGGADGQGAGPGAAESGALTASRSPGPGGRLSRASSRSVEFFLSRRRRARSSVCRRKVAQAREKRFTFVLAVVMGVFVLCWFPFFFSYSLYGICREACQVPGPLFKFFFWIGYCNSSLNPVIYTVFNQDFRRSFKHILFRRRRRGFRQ

[4] = target: 5-hydroxytryptamine receptor 2A (Homo sapiens) (UniProt P28223); details: Compound concentration 10.0 uM
[5] = target: 5-hydroxytryptamine receptor 5A (Homo sapiens) (UniProt P47898); details: Compound concentration 10.0 uM
[6] = target: Sodium-dependent dopamine transporter (Homo sapiens) (UniProt Q01959); details: Compound concentration 10.0 uM
[7] = target: Histamine H1 receptor (Homo sapiens) (UniProt P35367); details: Compound concentration 10.0 uM
Chain of Histamine H1 receptor (Homo sapiens) (P35367 whole entry): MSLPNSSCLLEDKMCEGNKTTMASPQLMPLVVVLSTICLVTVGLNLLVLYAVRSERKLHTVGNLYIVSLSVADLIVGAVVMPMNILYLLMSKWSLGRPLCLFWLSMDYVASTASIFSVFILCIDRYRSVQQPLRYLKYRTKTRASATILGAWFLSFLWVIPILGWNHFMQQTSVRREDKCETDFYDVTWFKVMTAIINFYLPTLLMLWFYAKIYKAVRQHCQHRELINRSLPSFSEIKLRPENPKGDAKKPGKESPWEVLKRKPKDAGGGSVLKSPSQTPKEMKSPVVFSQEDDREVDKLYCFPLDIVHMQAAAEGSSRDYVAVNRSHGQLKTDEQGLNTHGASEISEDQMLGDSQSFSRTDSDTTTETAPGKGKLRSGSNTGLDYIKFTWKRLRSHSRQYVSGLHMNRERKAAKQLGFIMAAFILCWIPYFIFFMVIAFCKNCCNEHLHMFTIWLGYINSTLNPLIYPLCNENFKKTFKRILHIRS

[8] = target: Sigma intracellular receptor 2 (Homo sapiens) (UniProt Q5BJF2); details: Compound concentration 10.0 uM
Chain of Sigma intracellular receptor 2 (Homo sapiens) (Q5BJF2 whole entry): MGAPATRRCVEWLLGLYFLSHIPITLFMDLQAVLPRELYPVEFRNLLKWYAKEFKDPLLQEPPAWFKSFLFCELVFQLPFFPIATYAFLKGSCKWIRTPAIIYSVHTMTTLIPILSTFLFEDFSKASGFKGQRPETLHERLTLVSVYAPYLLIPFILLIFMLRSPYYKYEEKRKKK

[9] = target: T2, 5-hydroxytryptamine receptor 1A (Homo sapiens) (UniProt P08908); details: Compound concentration 10.0 uM
T2 sequence (whole entry): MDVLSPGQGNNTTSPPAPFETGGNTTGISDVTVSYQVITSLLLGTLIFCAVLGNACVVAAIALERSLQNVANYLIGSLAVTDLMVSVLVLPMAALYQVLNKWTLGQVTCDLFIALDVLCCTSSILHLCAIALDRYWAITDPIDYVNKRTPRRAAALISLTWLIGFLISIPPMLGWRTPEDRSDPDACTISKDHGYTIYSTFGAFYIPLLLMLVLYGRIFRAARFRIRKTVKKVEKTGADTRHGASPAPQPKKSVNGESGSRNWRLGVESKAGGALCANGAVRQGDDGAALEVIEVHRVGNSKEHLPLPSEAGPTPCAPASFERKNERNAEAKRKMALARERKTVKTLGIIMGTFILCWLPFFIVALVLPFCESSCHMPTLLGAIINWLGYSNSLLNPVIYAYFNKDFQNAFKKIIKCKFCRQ

[10] = target: T3, Alpha-2B adrenergic receptor (Homo sapiens) (UniProt P18089); details: Compound concentration 10.0 uM
T3 sequence (whole entry): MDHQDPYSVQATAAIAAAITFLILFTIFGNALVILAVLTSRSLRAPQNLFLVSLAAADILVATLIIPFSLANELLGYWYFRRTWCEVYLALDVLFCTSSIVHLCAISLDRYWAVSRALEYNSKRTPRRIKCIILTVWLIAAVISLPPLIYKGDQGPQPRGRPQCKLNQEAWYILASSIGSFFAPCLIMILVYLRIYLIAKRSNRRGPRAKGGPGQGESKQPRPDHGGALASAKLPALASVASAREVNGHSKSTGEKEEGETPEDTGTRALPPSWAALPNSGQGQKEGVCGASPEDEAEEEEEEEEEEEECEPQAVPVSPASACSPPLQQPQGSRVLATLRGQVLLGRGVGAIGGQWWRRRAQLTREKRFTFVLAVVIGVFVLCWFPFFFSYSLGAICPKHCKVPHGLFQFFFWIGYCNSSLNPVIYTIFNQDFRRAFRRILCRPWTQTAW

[11] = target: Mu-type opioid receptor (Homo sapiens) (UniProt P35372); details: Compound concentration 10.0 uM
Chain of Mu-type opioid receptor (Homo sapiens) (P35372 whole entry): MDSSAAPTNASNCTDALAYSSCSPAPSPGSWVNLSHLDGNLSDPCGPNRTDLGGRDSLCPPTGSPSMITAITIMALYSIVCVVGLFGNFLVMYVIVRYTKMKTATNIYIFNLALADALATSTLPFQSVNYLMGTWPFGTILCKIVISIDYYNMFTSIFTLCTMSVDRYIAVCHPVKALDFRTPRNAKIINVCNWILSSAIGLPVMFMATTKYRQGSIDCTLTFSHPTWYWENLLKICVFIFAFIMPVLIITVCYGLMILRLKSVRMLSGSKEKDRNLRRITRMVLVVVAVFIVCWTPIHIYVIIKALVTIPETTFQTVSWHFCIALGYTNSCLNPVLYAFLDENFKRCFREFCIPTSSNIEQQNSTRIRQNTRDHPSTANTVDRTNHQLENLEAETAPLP

[12] = target: 5-hydroxytryptamine receptor 6 (Homo sapiens, UniProt P50406); assay: GPCRScan assay: inhibition of 5-HT6; design: radioligand conc. used [nm] 2.0 – 4.0, parental cells stable HEK
Chain of 5-hydroxytryptamine receptor 6 (P50406 whole entry): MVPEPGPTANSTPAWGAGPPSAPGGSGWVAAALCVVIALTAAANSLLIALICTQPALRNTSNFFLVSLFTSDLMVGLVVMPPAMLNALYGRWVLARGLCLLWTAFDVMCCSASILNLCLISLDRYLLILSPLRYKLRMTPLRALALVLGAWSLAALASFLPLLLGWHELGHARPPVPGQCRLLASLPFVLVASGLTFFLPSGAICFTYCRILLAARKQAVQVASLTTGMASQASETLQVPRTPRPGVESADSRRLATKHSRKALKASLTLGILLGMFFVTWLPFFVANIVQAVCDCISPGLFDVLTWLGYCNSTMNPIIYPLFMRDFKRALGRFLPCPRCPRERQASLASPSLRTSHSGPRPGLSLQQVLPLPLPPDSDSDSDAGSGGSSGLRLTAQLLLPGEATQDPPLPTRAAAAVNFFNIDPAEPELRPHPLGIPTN

[13] = target: Sodium-dependent noradrenaline transporter (Homo sapiens) (UniProt P23975); details: Compound concentration 10.0 uM
Chain of Sodium-dependent noradrenaline transporter (Homo sapiens) (P23975 whole entry): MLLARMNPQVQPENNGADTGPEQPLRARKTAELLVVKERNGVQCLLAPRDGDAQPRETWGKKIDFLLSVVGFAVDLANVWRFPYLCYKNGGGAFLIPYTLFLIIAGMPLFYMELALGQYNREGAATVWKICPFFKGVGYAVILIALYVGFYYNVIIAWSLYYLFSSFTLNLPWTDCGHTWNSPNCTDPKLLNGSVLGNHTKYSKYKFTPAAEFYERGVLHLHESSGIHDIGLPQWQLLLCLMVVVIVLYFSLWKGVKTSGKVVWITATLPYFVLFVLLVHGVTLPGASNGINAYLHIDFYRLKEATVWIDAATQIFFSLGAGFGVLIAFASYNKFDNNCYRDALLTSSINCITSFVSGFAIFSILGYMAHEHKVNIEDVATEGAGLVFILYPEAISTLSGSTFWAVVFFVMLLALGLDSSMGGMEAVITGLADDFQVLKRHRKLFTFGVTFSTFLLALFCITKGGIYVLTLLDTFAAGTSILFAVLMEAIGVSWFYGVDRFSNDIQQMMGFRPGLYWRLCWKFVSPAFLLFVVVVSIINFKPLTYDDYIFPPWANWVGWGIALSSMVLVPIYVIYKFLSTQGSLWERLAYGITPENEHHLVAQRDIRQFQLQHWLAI

[14] = target: T4, Muscarinic acetylcholine receptor M1 (Homo sapiens) (UniProt P11229); details: Compound concentration 10.0 uM
T4 sequence (whole entry): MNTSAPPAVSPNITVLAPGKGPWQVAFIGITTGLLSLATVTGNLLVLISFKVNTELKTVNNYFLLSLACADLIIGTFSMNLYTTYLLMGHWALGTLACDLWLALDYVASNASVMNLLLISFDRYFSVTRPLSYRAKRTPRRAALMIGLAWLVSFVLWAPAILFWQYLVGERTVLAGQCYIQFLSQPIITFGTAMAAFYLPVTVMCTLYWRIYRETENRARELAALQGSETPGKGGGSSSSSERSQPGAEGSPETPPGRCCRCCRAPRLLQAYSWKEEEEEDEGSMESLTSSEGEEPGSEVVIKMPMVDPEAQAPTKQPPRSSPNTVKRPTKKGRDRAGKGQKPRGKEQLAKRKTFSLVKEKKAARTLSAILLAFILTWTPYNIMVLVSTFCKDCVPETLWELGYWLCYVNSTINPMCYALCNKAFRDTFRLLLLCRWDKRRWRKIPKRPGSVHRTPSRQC

[15] = target: D(2) dopamine receptor (Homo sapiens) (UniProt P14416); details: Compound concentration 10.0 uM
Chain of D(2) dopamine receptor (Homo sapiens) (P14416 whole entry): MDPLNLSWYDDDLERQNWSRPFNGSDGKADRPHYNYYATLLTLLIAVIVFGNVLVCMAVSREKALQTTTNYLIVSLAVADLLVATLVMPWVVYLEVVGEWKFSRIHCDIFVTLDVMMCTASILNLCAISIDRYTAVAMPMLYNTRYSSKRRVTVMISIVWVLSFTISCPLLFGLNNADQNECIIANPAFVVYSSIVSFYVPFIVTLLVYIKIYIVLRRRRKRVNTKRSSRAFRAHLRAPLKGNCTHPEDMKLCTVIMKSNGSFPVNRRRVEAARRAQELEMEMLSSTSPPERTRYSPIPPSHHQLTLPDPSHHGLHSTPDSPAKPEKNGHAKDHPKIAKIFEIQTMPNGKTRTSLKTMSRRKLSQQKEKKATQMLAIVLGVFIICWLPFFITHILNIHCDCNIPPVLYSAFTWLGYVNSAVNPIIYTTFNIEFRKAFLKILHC

[16] = target: D(4) dopamine receptor (Homo sapiens) (UniProt P21917); details: Compound concentration 10.0 uM
Chain of D(4) dopamine receptor (Homo sapiens) (P21917 whole entry): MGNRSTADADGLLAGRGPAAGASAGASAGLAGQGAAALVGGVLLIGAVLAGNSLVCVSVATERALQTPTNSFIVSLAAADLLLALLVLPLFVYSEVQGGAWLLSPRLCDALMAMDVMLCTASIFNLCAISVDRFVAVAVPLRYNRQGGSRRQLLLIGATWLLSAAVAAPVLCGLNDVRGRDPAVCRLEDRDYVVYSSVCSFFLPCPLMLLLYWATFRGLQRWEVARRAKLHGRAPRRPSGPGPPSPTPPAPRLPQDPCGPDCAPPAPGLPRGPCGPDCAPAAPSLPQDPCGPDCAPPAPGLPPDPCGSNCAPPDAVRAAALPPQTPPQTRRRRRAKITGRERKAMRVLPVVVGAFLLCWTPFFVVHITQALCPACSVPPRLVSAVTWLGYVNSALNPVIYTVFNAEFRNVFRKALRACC

[17] = target: T5, 5-hydroxytryptamine receptor 1B (Homo sapiens, UniProt P28222); details: Compound concentration 10.0 uM
T5 sequence (P28222 whole entry): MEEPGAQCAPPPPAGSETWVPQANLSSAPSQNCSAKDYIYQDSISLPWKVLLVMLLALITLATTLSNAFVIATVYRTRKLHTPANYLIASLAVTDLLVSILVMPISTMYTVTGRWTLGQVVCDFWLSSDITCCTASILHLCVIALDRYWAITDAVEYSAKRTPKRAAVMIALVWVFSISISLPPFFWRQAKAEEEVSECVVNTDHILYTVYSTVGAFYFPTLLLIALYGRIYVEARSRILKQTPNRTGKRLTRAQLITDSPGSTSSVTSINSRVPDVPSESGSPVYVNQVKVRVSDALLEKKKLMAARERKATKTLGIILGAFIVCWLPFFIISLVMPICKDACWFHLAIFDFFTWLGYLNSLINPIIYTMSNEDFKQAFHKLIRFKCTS

[18] = target: T5, 5-hydroxytryptamine receptor 1B; assay: GPCRScan assay: inhibition of 5-HT1B; design: radioligand conc. used [nm] 0.6 – 1.5, parental cells stable HEK
[19] = target: Kappa-type opioid receptor (Homo sapiens) (UniProt P41145); details: Compound concentration 10.0 uM
Chain of Kappa-type opioid receptor (Homo sapiens) (P41145 whole entry): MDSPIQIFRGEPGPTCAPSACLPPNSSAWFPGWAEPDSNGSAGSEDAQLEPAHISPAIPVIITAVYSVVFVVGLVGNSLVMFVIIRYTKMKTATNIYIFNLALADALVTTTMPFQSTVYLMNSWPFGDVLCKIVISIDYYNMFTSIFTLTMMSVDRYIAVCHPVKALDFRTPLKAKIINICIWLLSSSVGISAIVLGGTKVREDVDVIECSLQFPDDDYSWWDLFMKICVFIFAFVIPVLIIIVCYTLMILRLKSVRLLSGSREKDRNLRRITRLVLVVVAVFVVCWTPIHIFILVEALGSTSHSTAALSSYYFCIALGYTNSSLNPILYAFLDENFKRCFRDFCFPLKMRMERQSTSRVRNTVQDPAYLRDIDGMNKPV

[20] = target: 5-hydroxytryptamine receptor 1D (Homo sapiens) (UniProt P28221); details: Compound concentration 10.0 uM
Chain of 5-hydroxytryptamine receptor 1D (Homo sapiens) (P28221 whole entry): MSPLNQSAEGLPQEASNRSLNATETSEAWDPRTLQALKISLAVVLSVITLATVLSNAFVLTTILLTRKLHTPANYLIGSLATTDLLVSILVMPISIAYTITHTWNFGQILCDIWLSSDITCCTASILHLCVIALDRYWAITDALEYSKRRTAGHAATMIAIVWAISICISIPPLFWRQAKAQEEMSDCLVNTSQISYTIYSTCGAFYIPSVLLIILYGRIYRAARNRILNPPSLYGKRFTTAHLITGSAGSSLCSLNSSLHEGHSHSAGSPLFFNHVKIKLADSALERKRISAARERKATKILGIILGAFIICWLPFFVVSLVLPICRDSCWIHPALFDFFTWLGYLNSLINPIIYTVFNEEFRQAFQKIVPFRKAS

[21] = target: Histamine H3 receptor (Homo sapiens) (UniProt Q9Y5N1); details: Compound concentration 10.0 uM
[22] = target: Delta-type opioid receptor (Homo sapiens) (UniProt P41143); details: Compound concentration 10.0 uM
[23] = target: Alpha-2A adrenergic receptor (Homo sapiens) (UniProt P08913); details: Compound concentration 10.0 uM
[24] = target: Beta-3 adrenergic receptor (Homo sapiens) (UniProt P13945); details: Compound concentration 10.0 uM
[25] = target: Histamine H4 receptor (Homo sapiens) (UniProt Q9H3N8); details: Compound concentration 10.0 uM
Chain of Histamine H4 receptor (Homo sapiens) (Q9H3N8 whole entry): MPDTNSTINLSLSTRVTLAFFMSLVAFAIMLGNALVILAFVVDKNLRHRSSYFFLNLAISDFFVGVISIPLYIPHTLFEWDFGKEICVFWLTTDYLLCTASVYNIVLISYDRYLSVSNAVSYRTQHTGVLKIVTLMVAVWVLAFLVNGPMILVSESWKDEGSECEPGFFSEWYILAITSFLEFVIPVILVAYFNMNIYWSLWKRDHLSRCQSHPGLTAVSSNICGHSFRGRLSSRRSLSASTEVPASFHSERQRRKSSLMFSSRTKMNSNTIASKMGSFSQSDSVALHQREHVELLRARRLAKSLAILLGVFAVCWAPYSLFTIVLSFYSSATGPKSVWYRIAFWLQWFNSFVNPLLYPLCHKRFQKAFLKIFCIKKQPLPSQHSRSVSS

[26] = target: Beta-1 adrenergic receptor (Homo sapiens) (UniProt P08588); details: Compound concentration 10.0 uM
[27] = target: D(3) dopamine receptor (Homo sapiens) (UniProt P35462); details: Compound concentration 10.0 uM
Chain of D(3) dopamine receptor (Homo sapiens) (P35462 whole entry): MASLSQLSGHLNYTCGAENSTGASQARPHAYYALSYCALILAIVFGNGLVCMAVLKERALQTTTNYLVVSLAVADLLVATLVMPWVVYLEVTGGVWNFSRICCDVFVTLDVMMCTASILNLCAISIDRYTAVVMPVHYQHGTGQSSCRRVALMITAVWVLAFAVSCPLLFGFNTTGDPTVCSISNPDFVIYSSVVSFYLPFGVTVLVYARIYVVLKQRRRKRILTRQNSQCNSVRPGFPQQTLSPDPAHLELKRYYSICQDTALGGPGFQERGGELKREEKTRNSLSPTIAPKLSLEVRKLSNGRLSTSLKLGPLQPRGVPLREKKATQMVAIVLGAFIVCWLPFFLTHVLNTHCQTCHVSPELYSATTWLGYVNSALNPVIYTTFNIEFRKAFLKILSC

[28] = target: D(1A) dopamine receptor (Homo sapiens, UniProt P21728); assay: GPCRScan assay: inhibition of D1; design: radioligand conc. used [nm] 0.6 – 1.3, parental cells HEKT
[29] = target: Muscarinic acetylcholine receptor M4 (Homo sapiens) (UniProt P08173); details: Compound concentration 10.0 uM
[30] = target: Histamine H2 receptor (Homo sapiens) (UniProt P25021); details: Compound concentration 10.0 uM
[31] = target: Sigma non-opioid intracellular receptor 1 (Homo sapiens) (UniProt Q99720); details: Compound concentration 10.0 uM

`CC[C@H](Nc1c(C#N)c(-c2ccc(-c3cccc(C)c3F)cc2)nc2cnccc12)C(=O)O` [BAY-0361] gave an inhibition [1] of 2.07%, an inhibition [2] of 41.8% and an inhibition [3] of -6.46%. For the same compound, the inhibition [4] was -9.27%, the inhibition [5] was -9.19% and the inhibition [6] was 38.8%. For the same compound, the inhibition [7] was -8.53%, the inhibition [8] was 11.6% and the inhibition [9] was 8.67%. For the same compound, the inhibition [10] was -7.7%, the inhibition [11] was -9.08% and the Ki [12] was > 10 µM. The pKi [12] was < 5, the inhibition [13] was -6.08% and the inhibition [14] was -8.53%. The inhibition [15] was -5.16%, the inhibition [16] was -8.01% and the inhibition [17] was 51%. The Ki [18] was > 10 µM, the pKi [18] was < 5 and the inhibition [19] was 4.36%. For the same compound, the inhibition [20] was 46.6%, the inhibition [21] was -8.98% and the inhibition [22] was 3.55%. It also gave an inhibition [23] of 8.09%, an inhibition [24] of 21.6% and an inhibition [25] of 18.7%. For the same compound, the inhibition [26] was 5.52%, the inhibition [27] was 7.14% and the Ki [28] was 9.48 µM. It also gave an inhibition [29] of -0.83%, an inhibition [30] of 9.78% and an inhibition [31] of 23.1%.
